Measured values as given in PubChem BioAssay (NCI).
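Protocol summary: plate cells (96-well), add compound at 5 concentrations, incubate 48 h, interpolate endpoints linearly. At the TGI there is no net growth.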

Experiments:
Assay in all cases: NCI anticancer screen, dose series, 48 h
786-0 renal = tested on: 786-0 renal
A498 renal = tested on: A498 renal
A549 NSCLC = tested on: A549 NSCLC
CAKI-1 renal = tested on: CAKI-1 renal
DU-145 prostate = tested on: DU-145 prostate
HCC-2998 colon = tested on: HCC-2998 colon
HCT-15 colon = tested on: HCT-15 colon
K-562 leukemia = tested on: K-562 leukemia
M14 melanoma = tested on: M14 melanoma
MALME-3M melanoma = tested on: MALME-3M melanoma
MCF7 breast = tested on: MCF7 breast
MDA-MB-435 = tested on: MDA-MB-435
NCI-H23 lung = tested on: NCI-H23 lung
NCI-H522 lung = tested on: NCI-H522 lung
OVCAR-8 ovarian = tested on: OVCAR-8 ovarian
SF-295 CNS = tested on: SF-295 CNS
SK-OV-3 ovarian = tested on: SK-OV-3 ovarian
SNB-19 CNS = tested on: SNB-19 CNS
T-47D breast = tested on: T-47D breast

SMILES | TGI (786-0 renal) [µM] | TGI (A498 renal) [µM] | TGI (A549 NSCLC) [µM] | TGI (CAKI-1 renal) [µM] | TGI (DU-145 prostate) [µM] | TGI (HCC-2998 colon) [µM] | TGI (HCT-15 colon) [µM] | TGI (K-562 leukemia) [µM] | TGI (M14 melanoma) [µM] | TGI (MALME-3M melanoma) [µM] | TGI (MCF7 breast) [µM] | TGI (MDA-MB-435) [µM] | TGI (NCI-H23 lung) [µM] | TGI (NCI-H522 lung) [µM] | TGI (OVCAR-8 ovarian) [µM] | TGI (SF-295 CNS) [µM] | TGI (SK-OV-3 ovarian) [µM] | TGI (SNB-19 CNS) [µM] | TGI (T-47D breast) [µM]
O=C(NCC(=O)N1CCCC1C(=O)OC(=O)C1CCCN1C(=O)CNC(=O)OCc1ccccc1)OCc1ccccc1 (configuration not stated) | > 100 | > 100 | > 100 | > 100 | > 100 | > 100 | > 100 | 72.8 | 45.7 | 64.8 | 60 | 68.3 | > 100 | > 100 | > 100 | 47.8 | > 100 | > 100 | > 100
CNC(C#N)c1ccc(OC)cc1 (configuration not stated) | > 100 | > 100 | > 100 | > 100 | > 100 | > 100 | > 100 | > 100 | > 100 | > 100 | > 100 | > 100 | > 100 | > 100 | > 100 | > 100 | > 100 | > 100 | > 100
Cc1cc(C)nc(NC(=O)c2ccc(Br)s2)c1 | > 100 | > 100 | > 100 | > 100 | > 100 | > 100 | > 100 | > 100 | 79.5 | > 100 | > 100 | > 100 | > 100 | > 100 | > 100 | > 100 | > 100 | > 100 | > 100
Nc1ccc(-c2nc3cc(F)ccc3s2)cc1Cl | > 100 | > 39.3 | > 100 | > 100 | > 100 | 0.0255 | > 100 | > 100 | > 100 | 67.8 | 1.35 | > 100 |  | > 100 | > 100 | > 72.3 | 52.6 | > 100 | > 70.1
Nc1ncnc2c1ccn2C/C=C\CO | > 100 | > 100 | > 100 | > 100 | > 100 | > 100 | > 100 | > 100 | > 100 | > 100 | > 100 | > 100 | > 100 | > 100 | > 100 | > 100 | > 100 | > 100 | > 100
CC(=O)N(C)c1ccc(Nc2cc(C)[nH]c3ccc4ncnc4c23)cc1 | 18.8 | 25.2 | 21.7 | 23.8 | 22.4 | 22.3 | 93.3 | 74 | 21.5 | 17.5 | 26 | 23.3 | 28 | 21.6 | 21.5 | 39.1 | 35.8 | 42.4 | 39.6
COC(=O)c1cc2c3c(ccc2[nH]1)N(C(=O)c1cc2cc(OC)c(OC)c(OC)c2[nH]1)CC3CCl (configuration not stated) | > 52.6 | > 100 | > 100 | > 100 | > 84.6 | > 100 | > 100 |  | > 100 | > 100 | > 100 | > 100 | > 100 | > 100 | > 100 | > 100 | > 100 | > 100 | > 100
CCOC(=O)c1c(NC(=O)c2cccs2)sc2c1CCCC2 | > 100 | > 96.3 | > 100 | > 100 | > 100 | > 100 | > 100 | > 100 | > 100 | > 74.5 | > 100 | > 100 | > 100 | > 100 | > 100 | > 100 | 79.5 | > 81.2 | > 100
Nc1ccc(Oc2ccc(C34CC5CC6C3CC3CC4C(C5)C6(c4ccc(Oc5ccc(N)cc5)cc4)C3)cc2)cc1 | 45.2 | 55.7 | > 83.8 | 48 | > 100 | 38.9 | > 100 | 40.5 | 21.4 | 2.81 | > 100 | 19 | > 82.9 | 47.7 | > 100 | 81.4 | 53.9 | > 61.4 | > 81.5
Oc1c(C2=NNC(c3ccc(Cl)cc3Cl)C2)ccc2ccccc12 (configuration not stated) | > 100 | > 100 | > 100 | > 100 | > 100 | > 100 | > 100 | 76.9 | > 100 | > 100 | > 100 | > 100 | > 100 | > 100 | > 100 | > 100 | > 100 |  | > 100
OC1(C(F)(F)F)OCCN=C1C(F)(F)F (configuration not stated) | > 100 | > 100 | > 100 | > 100 | > 100 | > 100 | > 100 | > 100 | > 100 | 76.4 | > 100 | > 100 | > 100 | > 100 | > 100 | > 100 | > 100 | > 100 | > 100
OCC1OC(c2cccc3cc(O)c(O)cc23)CC1O (configuration not stated) | > 100 | > 100 | > 100 |  | > 100 | > 100 | > 100 | > 100 | > 100 |  | > 100 | > 100 |  | > 100 | > 100 | > 100 | > 100 | > 100 | > 100
O=C1NC(NNc2ccccc2)=N/C1=C\c1ccccc1O | > 100 | > 100 | > 100 | > 100 | > 100 | > 100 | > 100 | > 100 | > 100 | > 100 | > 100 | > 100 | > 100 | > 100 | > 100 | > 100 | > 100 | > 100 | > 100
CCCCc1c(N(C)C)c(OC(C)=O)c(-c2cn(C)c3ccccc23)oc1=O | > 100 | 81.4 | > 100 | > 100 | > 100 |  | 53.7 |  | 35.8 | 62.3 | 39.6 | 47.8 | 56.7 | 49.5 |  | > 100 | > 100 | 90.3 | > 100
CC(C)(Cl)C(Br)CCC(C)(Cl)C(Br)CBr (configuration not stated) | 61.9 | 49.6 | > 100 |  | 85.2 | > 100 | 61.9 | > 100 | > 100 | 41 | 41.7 | 73.6 | 55.6 | 35.8 | > 100 | 46 | > 100 | > 100 | 81.3
Cc1cc2c(cc1Cl)SC(NS(=O)(=O)c1ccc(Cl)cc1)=NS2(=O)=O | > 100 | > 100 | > 100 | > 100 | > 100 |  | > 100 | > 100 | > 100 |  | > 100 | > 100 | > 100 | 84.2 |  | 88.3 | > 100 | > 100 | > 100
CC(=O)O[C@H]1C[C@H]2[C@@H](OC(C)=O)/C=C3\C[C@](C)(C(=O)[C@H](O)C(=C1C)C2(C)C)[C@@H](O)C[C@@H]3OC(=O)[C@H](O)[C@H](c1ccccc1)N(C)C | > 100 | > 100 | > 100 | > 100 | > 100 |  | > 100 | > 100 | > 100 | > 100 | > 100 | > 100 | > 100 | > 100 | > 100 | > 100 | > 100 | > 100 | > 100
C[N+](CCCl)(CCCl)Cc1cccc2cccc([N+](=O)[O-])c12 | > 100 | > 100 | > 100 | > 100 | > 100 |  | > 100 | > 100 | > 100 | > 100 | > 100 | > 100 | > 100 | > 100 | > 100 | > 100 | > 100 | > 100 | > 100
Cc1c([N+](=O)[O-])ccc2c(NCCCN(C)C)ccnc12 | 89.3 | 82.7 | 40.5 | > 100 | > 100 |  | 32.7 | > 100 | 29.9 | 31.7 | 37.2 | 34.9 | 34.6 | 31.9 | > 100 | 60.4 | > 100 |  | 76.5
O=c1cc(N2CCOCC2)[nH]c(=O)n1-c1ccc(F)cc1 | > 100 | > 100 |  | > 100 | > 100 | > 100 | > 100 | > 100 | > 100 | > 100 | > 100 | > 100 | > 100 | > 100 | > 100 | > 100 | > 100 | > 100 | > 100
O=C1NC(=O)C(c2c[nH]c3ccccc23)=C1c1cnc[nH]1 | > 100 | > 100 | > 100 | > 100 | > 100 |  | > 100 | > 100 | > 100 | > 100 | > 100 | > 100 |  | > 100 | > 100 | > 100 | > 100 | > 100 | > 100
CC(=O)c1ccc(NCc2cc(O)ccc2O)cc1 | 27.7 | > 100 |  | 34.6 | 58 |  | > 100 | > 100 | 38.4 |  | > 100 | 58.6 | 48.9 | > 100 | 88.1 | 34.6 | 59.8 | > 100 | 63.1
O=C1C2CC=CCC2C(=O)N1n1c(Cc2ccc(Cl)cc2)n[nH]c1=O (configuration not stated) | > 100 | > 100 | > 100 | > 100 | > 100 | > 100 | > 100 | > 100 | > 100 | > 100 | > 100 | > 100 | > 100 | > 100 | > 100 | > 100 | > 100 |  | > 100
CCOC(=O)C1=C(C)N(Cc2ccc(Cl)cc2Cl)C2(O)C=CC(=O)C3C(=O)N(c4ccccc4)C(=O)C132 (configuration not stated) | > 100 | 16.9 | 5.74 | 9.36 | 2.97 | 3.54 | 3.88 | 4.04 | 16 | 8.67 | 5.11 | 7.24 | 3.53 | 3.64 | 7.89 | 11.2 |  | 3.73 | 3.12
CC1(c2cccs2)CC(c2cccs2)=C(C#N)C(=C(C#N)C#N)N1 (configuration not stated) | 35 | 35.8 | 48.6 | 37 | 28.9 | 31.1 | 33.8 | > 100 | 40.5 | 35 | 39.1 | 31.8 | 38.8 |  | 42.9 | 32.6 | 37.1 | 36.6 | 39.4
N#Cc1nc2ccccc2nc1N1CCN(c2ccc([N+](=O)[O-])cc2)CC1 | > 100 | > 100 | > 100 | > 100 | > 100 | > 100 | > 100 |  | > 100 | > 100 | > 100 | > 100 | > 100 | > 100 | > 100 | > 100 | > 100 | > 100 | > 100
